In US10328084B2, “Pyrrolobenzodiazepines and targeted conjugates” (priority 2011, dated 2019):

Key:
Assay type in all cases: cell-based
[1] = test system: HL60; assay: in vitro cytotoxic activity, HL60; details: Homo sapiens, HL-60; HL60, 48 hours treatment, free PBD dimer; read-out: IC50 in pM following 48 hours treatment, HL60
Protocol: (§1) The in vitro cytotoxic activity of the selected antibody drug conjugate was assessed using a resazurin (Sigma, St. Louis, Mo., USA) reduction assay (reference: Doronina et al., Nature Biotechnology, 2003, 21, 778-784). The antibody drug conjugate was prepared as described above.
(§2) […] Serial dilutions of ADC in cell culture media were prepared at 4× working concentration; 50 μL of each dilution was added to the 96-well plates. […] Resazurin was then added to each well to achieve a 50 μM final concentration, and the plates were incubated for an additional 4 hours at 37° C. The plates were then read for the extent of dye reduction on a Fusion HT plate reader (Packard Instruments, Meridien, Conn., USA) with excitation and emission wavelengths of 530 and 590 nm, respectively. The IC50 value, determined in triplicate, is defined here as the concentration that results in a 50% reduction in cell growth relative to untreated controls.

[2] = test system: HEL9217; assay: in vitro cytotoxic activity, HEL9217; details: Homo sapiens, HEL 92.1.7; HEL9217, 48 hours treatment, free PBD dimer; read-out: IC50 in pM following 48 hours treatment, HEL9217
Protocol: as §1, §2

[3] = test system: 786-O; assay: in vitro cytotoxic activity, resazurin reduction assay, 786-O; details: Homo sapiens, 786-0, 48 h, read-out: IC50 in pM following 48 hours treatment, 786-O
Protocol: as §1
(§3) For the 96-hour assay, cells cultured in log-phase growth were seeded for 24 h in 96-well plates containing 150 μL RPMI 1640 supplemented with 20% FBS. Serial dilutions of ADC in cell culture media were prepared at 4× working concentration; 50 μL of each dilution was added to the 96-well plates. Following addition of ADC, the cells were incubated with test articles for 4 days at 37° C. Resazurin was then added to each well to achieve a 50 μM final concentration, and the plates were incubated for an additional 4 hours at 37° C. The plates were then read for the extent of dye reduction on a Fusion HT plate reader (Packard Instruments, Meridien, Conn., USA) with excitation and emission wavelengths of 530 and 590 nm, respectively. The IC50 value, determined in triplicate, is defined here as the concentration that results in a 50% reduction in cell growth relative to untreated controls.
(§4) Referring to the table below, the in vitro cytotoxicity of the ADC using the 96 hour assay is shown. […]

[4] = test system: Caki-1; assay: in vitro cytotoxic activity, resazurin reduction assay, Caki-1; details: Homo sapiens, CAKI-1, 48 h, read-out: IC50 in pM following 48 hours treatment, Caki-1
Protocol: as §1, §3, §4

Compound	IC50 [1]	IC50 [2]	IC50 [3]	IC50 [4]
COc1cc2c(cc1OCCCCCOc1cc3c(cc1OC)C(=O)N1C=C(c4ccc(OCCCN(C)C)cc4)C[C@H]1C=N3)N=C[C@@H]1CC(c3ccc(N)cc3)=CN1C2=O [compound 17, (S)-2-(4-aminophenyl)-8-((5-(((S)-2-(4-(3-(dimethylamino)propoxy)phenyl)-7-methoxy-5-oxo-5,11a-dihydro-1H-benzo[e]pyrrolo[1,2-a][1,4]diazepin-8-yl)oxy)pentyl)oxy)-7-methoxy-1H-benzo[e]pyrrolo[1,2-a][1,4]diazepin-5(11 aH)-one]	3 pM	2 pM	7 pM	2 pM
COCCOCCOCCOCCOc1ccc(C2=CN3C(=O)c4cc(OC)c(OCCCCCOc5cc6c(cc5OC)C(=O)N5C=C(c7ccc(N)cc7)C[C@@H]5C=N6)cc4N=C[C@H]3C2)cc1 [compound 23, (R)-2-(4-(2,5,8,11-tetraoxatridecan-13-yloxy)phenyl)-8-((5-(((R)-2-(4-aminophenyl)-7-methoxy-5-oxo-5,11a-dihydro-1H-benzo[e]pyrrolo[1,2-a][1,4]diazepin-8-yl)oxy)pentyl)oxy)-7-methoxy-1H-benzo[e]pyrrolo[1,2-a][1,4]diazepin-5(11aH)-one]	40 pM	100 pM	100 pM	100 pM
